Reference: PMC8448819, “The Arabidopsis MIK2 receptor elicits immunity by sensing a conserved signature from phytocytokines and microbes” (Nature Communications, 2021)
“And” between values parts separate entries of the source, which are not always exact repeats. Equal values may be shown once. “Also recorded” adds a separate entry of the source. Read-outs that look alike come from different tables or passages of the source. No end group written: not given here.

Assays:
Format in all cases: in vivo, Arabidopsis thaliana
[1] = tested on: mik2-1 and mik2-2 mutant seedlings; conditions: for Root length (Fig. 3e): individual values, one per line; for root growth inhibition in mik2: mik2-1 and mik2-2, 10-day-old seedlings, 1 µM peptide
[2] = tested on: Arabidopsis WT (Col-0) seedlings; conditions: in vivo
[3] = tested on: Arabidopsis WT seedlings; test: ROS assay (luminol), WT seedlings; conditions: WT seedlings
Protocol: ROS burst was determined by a luminol-based assay. […] Then, ddH2O was replaced by 200 µL of reaction solution containing 50 µM of luminol, and 10 µg/mL of horseradish peroxidase (Sigma-Aldrich) supplemented with or without 100 nM or 1 μM peptide. Luminescence was measured immediately after adding the solution with a luminometer (Glomax 20/20n, Promega) with a one-second interval for 15 min. The total values of ROS production were indicated as means of the relative light units (RLUs).

[4] = tested on: WRKY30, WRKY33 and CYP81F2 expression, mik2 seedlings; test: RT-qPCR of defense genes, mik2 mutants
[5] = tested on: WRKY30, WRKY33 and CYP81F2 expression, WT seedlings; test: RT-qPCR of defense genes, WT
[6] = tested on: MYB51 promoter, pMYB51::GUS seedling roots; test: Histochemical GUS staining, pMYB51::GUS; conditions: pMYB51::GUS seedlings, 1 µM, 3 h
Text: Stained samples were fixed with a 3:1 ethanol:acetic acid solution overnight and cleared by lactic acid and photographed with the Olympus SZX10 stereoscopic microscope equipped with DP27 camera.

[7] = tested on: Arabidopsis WT seedling roots; test: Microscopy of root browning and root meristems, WT
[8] = tested on: MPK3, MPK4 and MPK6 phosphorylation, WT seedlings; test: MAPK assay (α-pERK1/2 immunoblot), WT; conditions: Supplementary Fig. 3i
Protocol: Ten-day-old seedlings grown vertically on ½MS plates were transferred to ddH2O overnight for recovery. Then, ddH2O was replaced by 100 nM peptides for the indicated time.

[9] = tested on: p35S::Aequorin seedlings; conditions: Ca^2+ and ROS bursts, 100 nM

| Sequence | Root length (Fig. 3e) ([1]; mik2-1) | Root length (Fig. 3e) ([1]; mik2-2) | root growth inhibition [2] | MYB51 promoter activity in roots [6] | other results |
| --- | --- | --- | --- | --- | --- |
| GAPIVFTPPSSSCGGSP [STMP4, STMP4 peptide, which has an amino acid deletion in the conserved SxS motif] | 26.035 and 22.177 and 25.221 and 21.231 and 23.232 and 25.379 and 25.816 and 25.603 and 24.49 | 27.261 and 26.645 and 24.381 and 25.81 and 23.327 and 24.383 and 26.715 and 24.68 and 25.536 and 24.727 | – | – | – |
| KIAVGGSDSVRAHSK [SCOOP23, synthesized SCOOP peptide corresponding to the SxS motif] | 23.435 and 26.217 and 25.329 and 21.432 and 22.769 and 26.981 and 22.432 and 24.659 and 23.767 and 23.209 | 23.086 and 28.297 and 24.517 and 23.273 and 27.734 and 25.385 and 23.518 and 22.015 and 26.958 and 26.866 and 23.718 | inhibited root growth to various degrees | – | ROS production, total luminescence (Fig. 2h) ([3]; repeat 1): 2180098; ROS production, total luminescence (Fig. 2h) ([3]; repeat 2): 1251437; ROS production, total luminescence (Fig. 2h) ([3]; repeat 3): 1771537 |
| KIGASGSNSGRAPSC [SCOOP20, synthesized SCOOP peptide corresponding to the SxS motif] | 24.471 and 25.145 and 23.922 and 25.251 and 22.928 and 25.223 and 20.452 and 22.037 and 23.256 and 20.819 | 26.727 and 24.181 and 24.271 and 27.062 and 26.494 and 25.973 and 25.806 and 29.152 and 24.029 and 26.34 and 22.997 | inhibited root growth to various degrees | – | ROS production, total luminescence (Fig. 2h) ([3]; repeat 1): 5262077; ROS production, total luminescence (Fig. 2h) ([3]; repeat 2): 3306520; ROS production, total luminescence (Fig. 2h) ([3]; repeat 3): 2873103 |
| MGSGASGPVRSSQSSQAGGR [SCOOP12] | – | – | – | – | CYP81F2 expression (Fig. 3i) ([4]; mik2-1, repeat 1): 5.42; CYP81F2 expression (Fig. 3i) ([4]; mik2-1, repeat 2): 5.95; CYP81F2 expression (Fig. 3i) ([4]; mik2-1, repeat 3): 2.79; CYP81F2 expression (Fig. 3i) ([4]; mik2-1, repeat 4): 3.39; CYP81F2 expression (Fig. 3i) ([4]; mik2-2, repeat 1): 6.08; CYP81F2 expression (Fig. 3i) ([4]; mik2-2, repeat 2): 9.84; CYP81F2 expression (Fig. 3i) ([4]; mik2-2, repeat 3): 9.95; CYP81F2 expression (Fig. 3i) ([4]; mik2-2, repeat 4): 12.98; WRKY30, WRKY33 and CYP81F2 expression ([4]; mik2 mutants, 1 µM, 1 h, RT-qPCR): abolished in mik2 mutants; WRKY30, WRKY33 and CYP81F2 expression ([5]; 1 µM, 1 h, RT-qPCR): upregulation; CYP81F2 expression (Fig. 3i) ([5]; repeat 1): 29.17; CYP81F2 expression (Fig. 3i) ([5]; repeat 2): 38.18; CYP81F2 expression (Fig. 3i) ([5]; repeat 3): 74.97; CYP81F2 expression (Fig. 3i) ([5]; repeat 4): 101.98 |
| MISEARPSKSKKGGGR [SCOOP6B, synthesized SCOOP peptide corresponding to the SxS motif] | 26.764 and 22.587 and 22.234 and 24.018 and 23.886 and 24.716 and 22.804 and 23.685 and 23.478 and 25.619 | 24.299 and 28.027 and 25.995 and 25.387 and 24.265 and 26.073 and 27.219 and 21.779 and 25.474 and 24.644 | inhibited root growth to various degrees | – | – |
| PPRGPGGSGSGHGGGR [AtSCOOPL, SCOOPL from Acidovorax temperans] | – | – | inactivity | inactivity | – |
| PPRGSGGPGGSGHGGGG [AaSCOOPL, SCOOPL from Acidovorax avenae] | – | – | inactivity | inactivity | – |
| PPRGSGGSGSGHGGGR [VeSCOOPL, SCOOPL from Verminephrobacter eiseniae] | – | – | induced growth inhibition | MYB51 promoter activation in roots | root growth inhibition in mik2 [1]: blocked in mik2-1 |
| PPRGSGGSSSGHGGGR [CuSCOOPL, SCOOPL from a strain of Curvibacter sp] | – | – | induced growth inhibition | MYB51 promoter activation in roots | root growth inhibition in mik2 [1]: blocked in mik2-1 |
| RGIVKPPIASFHSASPKDKGP [SCOOP4, synthesized SCOOP peptide corresponding to the SxS motif] | 22.155 and 26.016 and 23.373 and 23.51 and 24.985 and 25.73 and 26.362 and 20.719 and 23.733 and 21.154 | 26.627 and 26.926 and 29.205 and 26.909 and 23.654 and 24.824 and 23.191 and 25.56 and 22.857 and 22.903 and 27.736 | inhibited root growth to various degrees | – | – |
| RPPTPRVAVHSNSTKGKGP [SCOOP15B, synthesized SCOOP peptide corresponding to the SxS motif] | 22.469 and 26.152 and 25.889 and 25.356 and 27.954 and 26.487 and 24.47 and 23.738 | 21.779 and 26.908 and 23.024 and 23.497 and 28.191 and 26.08 and 24.094 and 28.257 and 26.467 and 23.539 and 26.537 | inhibited root growth to various degrees | – | – |
| RSMAPPIFVPPSTSHKGQGP [SCOOP14, synthesized SCOOP peptide corresponding to the SxS motif] | 24.089 and 21.232 and 24.336 and 25.505 and 25.175 and 27.845 and 26.169 and 23.827 and 21.884 and 25.844 | 25.38 and 24.419 and 26.016 and 27.911 and 26.615 and 21.291 and 24.947 and 21.905 and 24.43 and 24.226 | inhibited root growth to various degrees; also recorded: potent in inhibiting root growth | induced the promoter activities of MYB51 | root browning ([7]; WT seedlings, prolonged treatment): led to brown roots; root meristem distortion ([7]; WT, 5-day-old seedlings, 1 µM, 48 h, PI staining): distorted root meristems; MAPK activation in shoots and roots [8]: triggered the MAPK activation in both shoots and roots; ROS production, total luminescence (Fig. 2h) ([3]; repeat 1): 719851; ROS production, total luminescence (Fig. 2h) ([3]; repeat 2): 1351126; ROS production, total luminescence (Fig. 2h) ([3]; repeat 3): 841586; ROS production, SCOOP13 and 14 relative to other SCOOPs, and Ca^2+ bursts [9]: relatively weak activities for Ca^2+ and ROS bursts |
| SNIDFEGSISGQAGGG [SCOOP8, synthesized SCOOP peptide corresponding to the SxS motif] | 25.253 and 25.162 and 23.049 and 22.582 and 26.011 and 22.381 and 28.631 and 26.512 and 24.502 and 27.853 | 23.975 and 28.387 and 29.648 and 23.838 and 24.549 and 26.123 and 23.426 and 24.732 and 24.595 and 29.804 and 26.398 | inhibited root growth to various degrees | – | – |
